Tested on: amyloid-beta (1-42) peptide
Assay: ELISA assay of amyloid-beta (1-42) in conditioned media of 2B7 cells
Format: cell-based
Settings: for IC50: Aβ-42, 2B7 cells, 5 hours, read-out: IC50 range; for inhibition at 100 µM / % Inhibition (range): Aβ-42, 100 umol/L; for inhibition at 100 µM: read-out: % Inhibition (range)
Method in brief: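 2B7 cells were treated with compounds for 5 hours at 37° C in media with 1% DMSO. Conditioned media, diluted 1:2 in blocking buffer, went into a sandwich ELISA with 6E10 capture and an HRP-labelled detection antibody, read by TMB at 450 nm. Values came from an Aβ peptide standard curve.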

| SMILES | IC50 [µM] | other results |
| --- | --- | --- |
| CC1CC(CN(CC(C)(C)O)S(C)(=O)=O)OC2C1C1(C)CCC34CC35CCC(O)C(C)(C)C5CCC4C1(C)C2O (stereo not drawn) | > 10 | – |
| CC(=O)N(Cc1ccccc1)C(C(=O)NCc1ccccc1)C1CC(C)C2C(O1)C(O)C1(C)C3CCC4C(C)(C)C(O)CCC45CC35CCC21C (stereo not drawn) | > 10 | – |
| CC1CC(c2nnco2)OC2C1C1(C)CCC34CC35CCC(O)C(C)(C)C5CCC4C1(C)C2O (stereo not drawn) | > 10 | – |
| CC1CC(CN2CCCCC2=O)OC2C1C1(C)CCC34CC35CCC(O)C(C)(C)C5CCC4C1(C)C2O (stereo not drawn) | > 10 | – |
| CC(=O)N(C)C(C(=O)NCc1ccccc1)C1CC(C)C2C(O1)C(O)C1(C)C3CCC4C(C)(C)C(O)CCC45CC35CCC21C (stereo not drawn) | > 10 | – |
| CC(=O)N(CC1CC(C)C2C(O1)C(O)C1(C)C3CCC4C(C)(C)C(O)CCC45CC35CCC21C)C1CCC1 (stereo not drawn) | > 10 | – |
| CC1CC(CN2CCCC2=O)OC2C1C1(C)CCC34CC35CCC(O)C(C)(C)C5CCC4C1(C)C2O (stereo not drawn) | > 10 | – |
| CC1CC(CN2C(=O)OCC2(C)C)OC2C1C1(C)CCC34CC35CCC(O)C(C)(C)C5CCC4C1(C)C2O (stereo not drawn) | > 10 | – |
| CC(=O)N(CC1CC(C)C2C(O1)C(O)C1(C)C3CCC4C(C)(C)C(OC(=O)c5cccnc5)CCC45CC35CCC21C)C1CCC1 (stereo not drawn) | > 10 | – |
| CC(=O)N(CC1CC(C)C2C(O1)C(O)C1(C)C3CCC4C(C)(C)C(OC(=O)c5cccnc5)CCC45CC35CCC21C)C(C)(C)C (stereo not drawn) | > 10 | – |
| CC1CC(CN(C)C(=O)C(C)(C)C)OC2C1C1(C)CCC34CC35CCC(O)C(C)(C)C5CCC4C1(C)C2O (stereo not drawn) | > 10 | – |
| CC1CC(CN(C)C(=O)C(C)(C)C)OC2C1C1(C)CCC34CC35CCC(OC(=O)c3cccnc3)C(C)(C)C5CCC4C1(C)C2O (stereo not drawn) | > 10 | – |
| CC(=O)N(Cc1ccccc1)CC1CC(C)C2C(O1)C(O)C1(C)C3CCC4C(C)(C)C(OC(=O)c5cccnc5)CCC45CC35CCC21C (stereo not drawn) | 1 to 10 | – |
| CC(=O)N(CC1CC(C)C2C(O1)C(O)C1(C)C3CCC4C(C)(C)C(O)CCC45CC35CCC21C)CC(C)(C)C (stereo not drawn) | 1 to 10 | – |
| COC(=O)N(CC1CC(C)C2C(O1)C(O)C1(C)C3CCC4C(C)(C)C(O)CCC45CC35CCC21C)C(C)(C)C (stereo not drawn) | > 10 | – |
| CC(C)NC(=O)N(Cc1ccccc1)CC1CC(C)C2C(O1)C(O)C1(C)C3CCC4C(C)(C)C(O)CCC45CC35CCC21C (stereo not drawn) | > 10 | – |
| CC(=O)N(Cc1ccccc1F)CC1CC(C)C2C(O1)C(O)C1(C)C3CCC4C(C)(C)C(O)CCC45CC35CCC21C (stereo not drawn) | 1 to 10 | – |
| CC(=O)N(Cc1cccc(F)c1)CC1CC(C)C2C(O1)C(O)C1(C)C3CCC4C(C)(C)C(O)CCC45CC35CCC21C (stereo not drawn) | ≤ 1 | – |
| CC(=O)N(Cc1ccc(F)cc1)CC1CC(C)C2C(O1)C(O)C1(C)C3CCC4C(C)(C)C(O)CCC45CC35CCC21C (stereo not drawn) | 1 to 10 | – |
| CC(=O)N(Cc1cccnc1)CC1CC(C)C2C(O1)C(O)C1(C)C3CCC4C(C)(C)C(O)CCC45CC35CCC21C (stereo not drawn) | > 10 | – |
| CC(=O)N(Cc1ccncc1)CC1CC(C)C2C(O1)C(O)C1(C)C3CCC4C(C)(C)C(O)CCC45CC35CCC21C (stereo not drawn) | > 10 | – |
| CC(=O)N(Cc1cc(F)cc(F)c1)CC1CC(C)C2C(O1)C(O)C1(C)C3CCC4C(C)(C)C(OC(=O)c5cccnc5)CCC45CC35CCC21C (stereo not drawn) | 1 to 10 | – |
| CC(=O)N(Cc1cc(F)c(F)c(F)c1)CC1CC(C)C2C(O1)C(O)C1(C)C3CCC4C(C)(C)C(O)CCC45CC35CCC21C (stereo not drawn) | 1 to 10 | – |

| SMILES | IC50 [µM] | other results |
| --- | --- | --- |
| CC(=O)N(Cc1cc(F)cc(F)c1)CC1CC(C)C2C(O1)C(O)C1(C)C3CCC4C(C)(C)C(OC(=O)c5ccccn5)CCC45CC35CCC21C (stereo not drawn) | 1 to 10 | – |
| CC1CC(CN(Cc2ccccc2)C(=O)N(C)C)OC2C1C1(C)CCC34CC35CCC(O)C(C)(C)C5CCC4C1(C)C2O (stereo not drawn) | > 10 | – |
| CC(=O)N(CC1CC(C)C2C(O1)C(O)C1(C)C3CCC4C(C)(C)C(O)CCC45CC35CCC21C)C(C)c1ccc(F)cc1 (stereo not drawn) | 1 to 10 | – |
| CC(=O)N(Cc1cc(F)cc(F)c1)CC1CC(C)C2C(O1)C(O)C1(C)C3CCC4C(C)(C)C(OC(=O)c5ccncc5)CCC45CC35CCC21C (stereo not drawn) | > 10 | – |
| CC(=O)N(Cc1cc(F)cc(F)c1)CC1CC(C)C2C(O1)C(O)C1(C)C3CCC4C(C)(C)C(OC(=O)C5CN(C(=O)OC(C)(C)C)C5)CCC45CC35CCC21C (stereo not drawn) | > 10 | – |
| CC1CC(C(OC(=O)C(C)(C)C)C(C)(C)O)OC2C1C1(C)CCC34CC35CCC(O)C(C)(C)C5CCC4C1(C)C2O (stereo not drawn) | > 1 | – |
| CC1CC(C2OC(=O)OC2(C)C)OC2C1C1(C)CCC34CC35CCC(O)C(C)(C)C5CCC4C1(C)C2O (stereo not drawn) | > 10 | – |
| CC(=O)N(Cc1cc(F)cc(F)c1)CC1CC(C)C2C(O1)C(O)C1(C)C3CCC4C(C)(C)C(OC(=O)CN5CCOCC5)CCC45CC35CCC21C (stereo not drawn) | > 10 | – |
| CC(=O)N(Cc1cc(F)cc(F)c1)CC1CC(C)C2C(O1)C(O)C1(C)C3CCC4C(C)(C)C(OC(=O)Cc5cccnc5)CCC45CC35CCC21C (stereo not drawn) | > 10 | – |
| CCC(=O)O[C@@H]([C@H]1C[C@@H](C)C2C(O1)C(N)[C@@]1(C)[C@@H]3CC[C@H]4C(C)(C)[C@@H](O)CC[C@@]45C[C@@]35CC[C@]21C)C(C)(C)O (stereo partly drawn) | – | inhibition at 100 µM: 25 to 75% |
| CC(=O)O[C@@H]([C@H]1C[C@@H](C)C2=C(O1)[C@H](O[Si](C)(C)C(C)(C)C)[C@@]1(C)[C@@H]3CC[C@H]4C(C)(C)[C@H](N)CC[C@@]45C[C@@]35CC[C@]21C)C(C)(C)O | – | inhibition at 100 µM: < 25% |
| C[C@@H]1C[C@H](C=O)OC2C1[C@@]1(C)CC[C@@]34C[C@@]35CC[C@H](O)C(C)(C)[C@@H]5CC[C@H]4[C@]1(C)[C@H]2O (stereo partly drawn) | – | inhibition at 100 µM: < 25% |
| C[C@@H]1C[C@H](CO)OC2C1[C@@]1(C)CC[C@@]34C[C@@]35CC[C@H](O)C(C)(C)[C@@H]5CC[C@H]4[C@]1(C)[C@H]2O (stereo partly drawn) | – | inhibition at 100 µM: < 25% |
| CC(=O)O[C@@H]([C@H]1C[C@@H](C)C2C(O1)[C@H](O)[C@@]1(C)[C@@H]3CC[C@H]4C(C)(C)C(=O)CC[C@@]45C[C@@]35CC[C@]21C)C(C)(C)O (stereo partly drawn) | – | inhibition at 100 µM: 25 to 75% |
| CC(=O)O[C@@H]([C@H]1C[C@@H](C)C2C(O1)[C@H](O)[C@@]1(C)[C@@H]3CC[C@H]4C(C)(C)[C@H](N)CC[C@@]45C[C@@]35CC[C@]21C)C(C)(C)O (stereo partly drawn) | – | inhibition at 100 µM: 25 to 75% |
| CC(=O)O[C@@H]([C@H]1C[C@@H](C)C2C(O1)[C@H](O)[C@@]1(C)[C@@H]3CC[C@H]4C(C)(C)[C@H](N5CCOCC5)CC[C@@]45C[C@@]35CC[C@]21C)C(C)(C)O (stereo partly drawn) | – | inhibition at 100 µM: < 25% |
| C[C@@H]1C[C@H]([C@@H]2OC(=O)OC2(C)C)OC2C1[C@@]1(C)CC[C@@]34C[C@@]35CC[C@H](O)C(C)(C)[C@@H]5CC[C@H]4[C@]1(C)[C@H]2O (stereo partly drawn) | – | inhibition at 100 µM: 25 to 75% |
| CC1CC(C(O)C(C)(C)O)OC2C1C1(C)CCC34CC35CCC(OC3CN(C(=O)Cc6ccncc6)CCO3)C(C)(C)C5CCC4C1(C)C2O (stereo not drawn) | – | % Inhibition (range): F (% inhibition of <25%) |
| CC1CC(C(O)C(C)(C)O)OC2C1C1(C)CCC34CC35CCC(OC3CN(C(=O)c6cccnc6)CCO3)C(C)(C)C5CCC4C1(C)C2O (stereo not drawn) | – | % Inhibition (range): F (% inhibition of <25%) |
| CC1CC(C(O)C(C)(C)O)OC2C1C1(C)CCC34CC35CCC(OC3CN(C(=O)CN6CCOCC6)CCO3)C(C)(C)C5CCC4C1(C)C2O (stereo not drawn) | – | % Inhibition (range): F (% inhibition of <25%) |
| CC1CC(C(O)C(C)(C)O)OC2C1C1(C)CCC34CC35CCC(OC3CN(C6CC6)CCO3)C(C)(C)C5CCC4C1(C)C2O (stereo not drawn) | – | % Inhibition (range): F (% inhibition of <25%) |
| CC1CC(C(O)C(C)(C)O)OC2C1C1(C)CCC34CC35CCC(OC3CN(CCF)CCO3)C(C)(C)C5CCC4C1(C)C2O (stereo not drawn) | – | % Inhibition (range): F (% inhibition of <25%) |

Reference: patent US20110251379A1, “COMPOUNDS USEFUL FOR TREATING NEURODEGENERATIVE DISORDERS” (Satori Pharmaceuticals, Inc., priority 2010, published 2011)
